# Reference: PMC7462507, “Noncompetitive Inhibition of Bovine Liver Catalase by Lawsone: Kinetics, Binding Mechanism and in silico Modeling Approaches” (Iranian Journal of Pharmaceutical Research : IJPR, 2020)
# pKi: −log10 of the molar value.
# Target: T1, bovine liver catalase (BLC) (Bos taurus, UniProt P00432)
# T1 construct: gene CAT
# T1 sequence (P00432 2-527): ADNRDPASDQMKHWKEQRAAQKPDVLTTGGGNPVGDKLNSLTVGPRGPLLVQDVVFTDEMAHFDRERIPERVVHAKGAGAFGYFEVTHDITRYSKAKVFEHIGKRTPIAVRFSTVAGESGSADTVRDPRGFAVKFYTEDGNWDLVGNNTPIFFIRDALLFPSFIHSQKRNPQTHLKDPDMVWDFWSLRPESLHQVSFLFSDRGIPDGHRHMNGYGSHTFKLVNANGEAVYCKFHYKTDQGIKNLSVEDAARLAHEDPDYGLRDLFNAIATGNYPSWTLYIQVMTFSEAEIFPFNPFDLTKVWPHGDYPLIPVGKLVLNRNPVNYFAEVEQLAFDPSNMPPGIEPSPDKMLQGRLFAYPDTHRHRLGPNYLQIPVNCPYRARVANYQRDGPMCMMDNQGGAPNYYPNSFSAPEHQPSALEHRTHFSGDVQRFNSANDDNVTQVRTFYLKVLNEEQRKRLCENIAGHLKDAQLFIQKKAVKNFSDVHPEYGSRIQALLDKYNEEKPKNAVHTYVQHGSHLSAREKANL
# Assay: UV kinetics of H2O2 decomposition at […] nm, Lineweaver-Burk (IC50 about […]); supported by fluorescence quenching, UV-vis and ATR-FTIR
# Type: biochemical
structure (smiles),measurement,value
"O=C1C=C(O)C(=O)c2ccccc21 [LAW, 2-hydroxy-1,4-naphtoquinone]",pKi,4.80
